ChEMBL document CHEMBL3739401, “Synthesis, in vitro, and in vivo evaluation of novel functionalized quaternary ammonium curcuminoids as potential anti-cancer agents” (Bioorg Med Chem Lett, 2015)
The source made the active and inactive calls. The rule behind the calls is not given here.

Legend:
[1] = Aqueous solubility of compound; type: physicochemical; settings: water
MDA-MB-231 [2] = assay: Cytotoxicity against human MDA-MB-231 cells by MTT assay; type: functional, cell-based
[3] = Cytotoxicity against human MIAPaCa2 cells by MTT assay; type: functional, cell-based; settings: MIA PaCa-2
4T1 = assay: Cytotoxicity against mouse 4T1 cells by MTT assay; type: functional, cell-based
MDA-MB-231 [4] = assay: Cytotoxicity against human MDA-MB-231 cells upto 50 uM by MTT assay; type: functional, cell-based
MDA-MB-231 [5] = assay: Cytotoxicity against human MDA-MB-231 cells at 20 to 50 uM by MTT assay; type: functional, cell-based
[6] = Antitumor activity against human MIAPaCa2 cells xenografted in athymic nude mouse assessed as tumor growth inhibition at 100 mg/kg, ip twice weekly; type: functional; settings: MIA PaCa-2, ip, read-out: TGI
Mus musculus [7] = assay: Toxicity in CD-1 mouse assessed as effect on body weight at 30 mg/kg, ip bid; type: organism-based; settings: in vivo
Mus musculus [8] = assay: Toxicity in CD-1 mouse assessed as effect on body weight at 50 mg/kg, ip measured after 7 days; type: organism-based; settings: in vivo, 168 h
Mus musculus [9] = assay: Toxicity in CD-1 mouse assessed as survival at 30 mg/kg, ip bid; type: organism-based; settings: in vivo
Mus musculus [10] = assay: Toxicity in CD-1 mouse assessed as survival at 50 mg/kg, ip measured after 7 days; type: organism-based; settings: in vivo, 168 h
Mus musculus [11] = assay: Toxicity in CD-1 mouse assessed as sign of stress at 30 mg/kg, ip bid; type: organism-based; settings: in vivo
Mus musculus [12] = assay: Toxicity in CD-1 mouse assessed as sign of stress at 50 mg/kg, ip measured after 7 days; type: organism-based; settings: in vivo, 168 h
[13] = Antitumor activity against human MIAPaCa2 cells xenografted in athymic nude mouse assessed as tumor growth inhibition at 40 mg/kg, ip bid; type: functional; settings: MIA PaCa-2, ip, read-out: TGI
[14] = Antitumor activity against human MIAPaCa2 cells xenografted in athymic nude mouse assessed as tumor growth inhibition at 40 mg/kg, ip bid cotreated with gemcitabine (100 mg/kg, ip twice weekly; type: functional, MIA PaCa-2

Row | SMILES | solubility [1] | IC50 (MDA-MB-231 [2]) | IC50 [3] | IC50 (4T1) | further results
1 | C=CC[N+]1(C)CCOCC1 | > 100000 µg/mL |  |  |  | 
2 | COC(=O)/C(=C\c1ccccc1)C[N+]1(C)CCN(c2ccc(/C=C/C(=O)/C=C(O)/C=C/c3ccc(N4CC[N+](C)(C/C(=C/c5ccccc5)C(=O)OC)CC4)cc3)cc2)CC1.[Br-].[Br-] | 1000 µg/mL | 6.2 µM | 4.1 µM | 5 µM | 
3 | C=C(C[N+]1(C)CCOCC1)C(=O)OC | > 100000 µg/mL |  |  |  | 
4 | C[N+]1(Cc2ccccc2)CCOCC1 | > 100000 µg/mL |  |  |  | 
5 | C=C(C(=O)OC)C(O)c1ccccc1 (configuration not stated) |  |  |  |  | Activity (MDA-MB-231 [4]): inactive
6 | C=C(CBr)C(=O)OC |  |  |  |  | Activity (MDA-MB-231 [5]): Active
7 | C=C(C[N+]1(C)CCN(c2ccc(/C=C/C(=O)/C=C(O)/C=C/c3ccc(N4CC[N+](C)(CC(=C)C(=O)OCCCCCC)CC4)cc3)cc2)CC1)C(=O)OCCCCCC.[Br-].[Br-] | 1000 µg/mL | 4.2 µM | 4.2 µM | 3.4 µM | 
8 | CN1CCN(c2ccc(/C=C/C(=O)/C=C(O)/C=C/c3ccc(N4CCN(C)CC4)cc3)cc2)CC1 |  | > 100 µM | > 100 µM | > 100 µM | 
9 | C=C(C[N+]1(C)CCN(c2ccc(/C=C/C(=O)/C=C(O)/C=C/c3ccc(N4CC[N+](C)(CC(=C)C(=O)OCCCC)CC4)cc3)cc2)CC1)C(=O)OCCCC.[Br-].[Br-] | 1000 µg/mL | 3.7 µM | 4.4 µM | 4.1 µM | 
10 | COc1cc(/C=C/C(=O)CC(=O)/C=C/c2ccc(O)c(OC)c2)ccc1O [CURCUMIN] |  | 15 µM | 20 µM | 20 µM | 
11 | COC(=O)/C(=C/c1ccccc1)CBr |  |  |  |  | Activity (MDA-MB-231 [5]): Active
12 | Nc1ccn([C@@H]2O[C@H](CO)[C@@H](O)C2(F)F)c(=O)n1 [GEMCITABINE] |  |  |  |  | inhibition in vivo at 100 mg/kg [6]: 47%
13 | C[N+]1(Cc2ccccc2)CCN(c2ccc(/C=C/C(=O)/C=C(O)/C=C/c3ccc(N4CC[N+](C)(Cc5ccccc5)CC4)cc3)cc2)CC1.[Br-].[Br-] | 15000 µg/mL | > 100 µM | > 100 µM | > 100 µM | 
14 | C=C(C[N+]1(C)CCN(c2ccc(/C=C/C(=O)/C=C(O)/C=C/c3ccc(N4CC[N+](C)(CC(=C)C(=O)OC)CC4)cc3)cc2)CC1)C(=O)OC.[Br-].[Br-] | 1000 µg/mL | 3.6 µM | 2.7 µM | 4.1 µM | Activity (Mus musculus [7]): Non-toxic; Activity (Mus musculus [8]): Non-toxic; Activity (Mus musculus [9]): Non-toxic; Activity (Mus musculus [10]): Non-toxic; Activity (Mus musculus [11]): Non-toxic; Activity (Mus musculus [12]): Non-toxic; inhibition in vivo at 40 mg/kg [13]: 42%; TGI [14]: 57%
15 | O=C(/C=C(O)/C=C/c1ccc(N2CCN(CCO)CC2)cc1)/C=C/c1ccc(N2CCN(CCO)CC2)cc1 |  | > 100 µM | > 100 µM | > 100 µM | 
16 | C=CC[N+]1(C)CCN(c2ccc(/C=C/C(=O)/C=C(O)/C=C/c3ccc(N4CC[N+](C)(CC=C)CC4)cc3)cc2)CC1.[Br-].[Br-] | 15000 µg/mL | > 100 µM | > 100 µM | > 100 µM | 
17 | C=C(C[N+]1(C)CCN(c2ccc(/C=C/C(=O)/C=C(O)/C=C/c3ccc(N4CC[N+](C)(CC(=C)C(=O)N(C)C)CC4)cc3)cc2)CC1)C(=O)N(C)C.[Br-].[Br-] | 1000 µg/mL | 15.1 µM | 14.2 µM | 17.2 µM | 
